Laboratory results taken from BindingDB's records for patent US20250326790 (University of Southampton, 2025).
Where a SMILES comes first, the peptide text is derived from it. [ ]: non-standard residue; d: D form. The star is where a group is joined. Phe(4-I) = N[C@@H](Cc1ccc(I)cc1)C(=O)O; hLeu = CC(C)CC[C@H](N)C(=O)O; Isobutyryl = CC(C)C(=O)*

Target: T1, Hypoxia-inducible factor 1-alpha [228-298] (Homo sapiens, UniProt Q16665)
T1 construct: 228-298
Assay: Assessment of HIF-1α and 2α Binding Activity in In Vitro Assays
Experimental: MST experiments were performed on a Monolith NT.115 system (Nanotemper Technologies GmbH), in assay buffer containing 50 nM labelled protein, 10% DMSO and 0.05% TWEEN-20. MST measurements were performed using 50% LED and 50% MST power.

T1 sequence (Q16665 whole entry): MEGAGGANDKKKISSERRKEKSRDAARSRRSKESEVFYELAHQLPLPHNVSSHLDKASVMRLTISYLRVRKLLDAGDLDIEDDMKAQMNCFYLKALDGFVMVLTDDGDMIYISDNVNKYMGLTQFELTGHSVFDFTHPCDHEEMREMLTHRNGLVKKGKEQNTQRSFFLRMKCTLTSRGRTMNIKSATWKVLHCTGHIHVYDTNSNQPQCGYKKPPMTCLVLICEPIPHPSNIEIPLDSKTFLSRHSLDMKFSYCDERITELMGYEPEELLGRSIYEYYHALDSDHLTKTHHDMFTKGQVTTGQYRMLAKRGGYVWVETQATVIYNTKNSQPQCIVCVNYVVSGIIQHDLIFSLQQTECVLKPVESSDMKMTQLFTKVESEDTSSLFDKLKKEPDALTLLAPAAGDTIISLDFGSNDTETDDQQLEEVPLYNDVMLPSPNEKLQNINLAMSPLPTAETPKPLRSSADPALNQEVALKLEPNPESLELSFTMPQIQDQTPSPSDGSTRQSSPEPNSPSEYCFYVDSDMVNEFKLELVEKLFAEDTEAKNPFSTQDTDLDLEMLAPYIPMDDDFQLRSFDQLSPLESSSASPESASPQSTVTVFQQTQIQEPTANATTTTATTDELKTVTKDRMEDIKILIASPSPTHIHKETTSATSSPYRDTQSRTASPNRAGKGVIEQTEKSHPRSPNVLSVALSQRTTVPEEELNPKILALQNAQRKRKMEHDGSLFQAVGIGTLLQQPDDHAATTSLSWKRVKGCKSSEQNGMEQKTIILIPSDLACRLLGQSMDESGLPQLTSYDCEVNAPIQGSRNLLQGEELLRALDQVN

| SMILES | Kd |
| --- | --- |
| CC(C)CC[C@H](NC(=O)C(C)C)C(=O)N[C@@H](Cc1ccc(I)cc1)C(=O)N[C@@H](CS)C(N)=O [US20250326790, Example 1] (Isobutyryl-[hLeu]-[Phe(4-I)]-Cys-NH2) | > 40 µM |
| CC(C)CC[C@H](NS(=O)(=O)c1ccc(Cl)s1)C(=O)N[C@@H](Cc1ccc(I)cc1)C(=O)N[C@@H](CS)C(=O)NCCCCCCN [US20250326790, Example 41] | > 100 µM |
